Experiments:
Na,K-ATPase = assay: Western analysis of Na,K-ATPase α1 and β1 in basolateral membrane of A549 cells; format: cell-based, human; details: ICI 118,551 10^-6 M 10 minutes prior to procaterol
Procedure: To test if β2AR overexpression can affect active Na^+ transport in vitro, A549 cells were treated as described above prior to measurement of ouabain-sensitive Na^+ transport (an index of Na,K-ATPase activity). […] Additional studies done to establish the mechanisms responsible for this finding included quantification of Na,K-ATPase α1 and β1 expression in the basolateral membrane of A549 cells.

rat lungs = assay: Lung liquid clearance, fluid-filled isolated perfused rat lung preparation; format: in vivo, Sprague-Dawley rats; details: procaterol 100 μg every 8 hours by gavage
Procedure: To test if β2AR gene transfer could increase transgene expression and if overexpression could affect the transepithelial osmotic gradient necessary to achieve pulmonary edema clearance, normal Sprague-Dawley rats were infected with the vectors disclosed in Example 1. 250-300 gm male Sprague-Dawley rats were lightly sedated with pentobarbital prior to orotracheal intubation with a 14 g angiocatheter. Adenovirus (4×10^9 pfu) was suspended in […] of a 50% surfactant/50% dialysis buffer mixture (Surfanta, Abbott Laboratories, Columbus, Ohio). […]
Seven days after infection, whole lung transgene expression was measured via Western analysis using a rabbit anti-human β2AR antibody and chemiluminescent detection method. […] To test for in vivo transgene function lung liquid clearance was measured using a well-established isolated lung preparation. […]
To test if agonist-induced loss of receptor function and/or expression occurs in the alveolar epithelium normal rats were treated with the β2AR specific agonist procaterol (100 μg every 8 hours by gavage). Lung liquid clearance was then measured using a fluid-filled isolated lung preparation in the presence of procaterol (10^−6 M instilled into the alveolar airspace and perfused through the pulmonary artery) beginning 4 hours after the first dose. […]

β2AR = molecular target: T1, β2AR (Rattus norvegicus, UniProt P10608); assay: Western analysis of β2AR in apical membranes of peripheral lung of procaterol-treated rats; format: in vivo; details: procaterol 100 μg every 8 hours by gavage
T1 construct: from tissue; host or cells: apical membranes of rat peripheral lung
T1 sequence (P10608 whole entry): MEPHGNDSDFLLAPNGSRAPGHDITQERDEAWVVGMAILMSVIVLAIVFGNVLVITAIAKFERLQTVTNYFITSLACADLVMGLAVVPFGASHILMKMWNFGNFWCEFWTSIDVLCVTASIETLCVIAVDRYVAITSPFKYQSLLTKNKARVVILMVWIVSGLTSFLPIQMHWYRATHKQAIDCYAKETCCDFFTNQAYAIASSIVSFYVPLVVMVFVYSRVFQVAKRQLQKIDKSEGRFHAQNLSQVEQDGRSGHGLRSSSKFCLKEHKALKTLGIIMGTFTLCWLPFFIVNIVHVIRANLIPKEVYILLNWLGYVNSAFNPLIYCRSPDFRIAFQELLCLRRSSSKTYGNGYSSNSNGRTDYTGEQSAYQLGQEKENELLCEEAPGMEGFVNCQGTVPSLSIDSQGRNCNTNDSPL
Procedure: To test if agonist-induced loss of receptor function and/or expression occurs in the alveolar epithelium normal rats were treated with the β2AR specific agonist procaterol (100 μg every 8 hours by gavage). Lung liquid clearance was then measured using a fluid-filled isolated lung preparation in the presence of procaterol (10^−6 M instilled into the alveolar airspace and perfused through the pulmonary artery) beginning 4 hours after the first dose. […] Thus, the loss of catecholamine responsive lung liquid clearance in these rats is likely due, in part, to receptor downregulation.

| SMILES | effect of antagonist pre-treatment on recruitment of Na,K-ATPase to the cell membrane (Na,K-ATPase) | lung liquid clearance in presence of procaterol after procaterol pretreatment, 4 hours (rat lungs; 4 hours after first dose, 10^-6 M during measurement) | lung liquid clearance in presence of procaterol after procaterol pretreatment, 24 hours (rat lungs; 24 hours) | β2AR expression in apical membranes of peripheral lung (β2AR) |
| --- | --- | --- | --- | --- |
| Cc1ccc(OCC(O)C(C)NC(C)C)c2c1CCC2 (stereo not shown) [ICI 118,551] | blocked | – | – | – |
| CCC(NC(C)C)C(O)c1ccc(O)c2[nH]c(=O)ccc12 (stereo not shown) [procaterol] | – | not different from untreated controls | remained less than naive rats | marked reductions |
